Experiments:
Test in all cases: relative viability (nuclei count vs DMSO), 5 days (fraction); higher = more cells survive
VX-11e + Trametinib = compound: CC1=CN=C(N=C1C2=CNC(=C2)C(=O)N[C@H](CO)C3=CC(=CC=C3)Cl)NC4=C(C=C(C=C4)F)Cl [VX-11e] + CC(=O)Nc1cccc(-n2c(=O)n(C3CC3)c(=O)c3c(Nc4ccc(I)cc4F)n(C)c(=O)c(C)c32)c1 [Trametinib] (partner 0.02 µM)
Outline: (§1)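 Five library-drug doses in √10 steps were combined with a fixed anchor-drug dose, or a single drug was given alone, by pin tool to lung cancer cell lines in 1536-well plates the day after seeding. Nuclei were stained and counted after 5 days. Relative viability is the nuclei count in treated wells over that in vehicle wells, taken as the median of duplicate plates.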

VX-11e + Lapatinib = compound: CC1=CN=C(N=C1C2=CNC(=C2)C(=O)N[C@H](CO)C3=CC(=CC=C3)Cl)NC4=C(C=C(C=C4)F)Cl [VX-11e] + CS(=O)(=O)CCNCc1ccc(-c2ccc3ncnc(Nc4ccc(OCc5cccc(F)c5)c(Cl)c4)c3c2)o1 [Lapatinib] (partner 2 µM)
Outline: as §1

VX-11e + Phenformin = compound: CC1=CN=C(N=C1C2=CNC(=C2)C(=O)N[C@H](CO)C3=CC(=CC=C3)Cl)NC4=C(C=C(C=C4)F)Cl [VX-11e] + N=C(N)NC(=N)NCCc1ccccc1 [Phenformin] (partner 250 µM)
Outline: as §1

VX-11e + Olaparib = compound: CC1=CN=C(N=C1C2=CNC(=C2)C(=O)N[C@H](CO)C3=CC(=CC=C3)Cl)NC4=C(C=C(C=C4)F)Cl [VX-11e] + O=C(c1cc(Cc2n[nH]c(=O)c3ccccc23)ccc1F)N1CCN(C(=O)C2CC2)CC1 [Olaparib] (partner 8 µM)
Outline: as §1

Cell Line	relative viability (VX-11e + Trametinib; first compound 0.04 µM)	relative viability (VX-11e + Trametinib; first compound 0.1265 µM)	relative viability (VX-11e + Trametinib; first compound 0.4 µM)	relative viability (VX-11e + Trametinib; first compound 1.265 µM)	relative viability (VX-11e + Trametinib; first compound 4 µM)	relative viability (VX-11e + Lapatinib; first compound 0.04 µM)	relative viability (VX-11e + Lapatinib; first compound 0.1265 µM)	relative viability (VX-11e + Lapatinib; first compound 0.4 µM)	relative viability (VX-11e + Lapatinib; first compound 1.265 µM)	relative viability (VX-11e + Lapatinib; first compound 4 µM)	relative viability (VX-11e + Phenformin; first compound 0.04 µM)	relative viability (VX-11e + Phenformin; first compound 0.1265 µM)	relative viability (VX-11e + Phenformin; first compound 0.4 µM)	relative viability (VX-11e + Phenformin; first compound 1.265 µM)	relative viability (VX-11e + Phenformin; first compound 4 µM)	relative viability (VX-11e + Olaparib; first compound 0.04 µM)	relative viability (VX-11e + Olaparib; first compound 0.1265 µM)	relative viability (VX-11e + Olaparib; first compound 0.4 µM)	relative viability (VX-11e + Olaparib; first compound 1.265 µM)	relative viability (VX-11e + Olaparib; first compound 4 µM)
COR-L23	0.481	0.441	0.323	0.328	0.188	1.3	1	0.806	0.634	0.398	0.52	0.409	0.471	0.428	0.276	0.445	0.463	0.486	0.491	0.207
NCI-H1395	1	0.942		0.895	0.617	0.969	0.864	0.548	0.82	0.716	0.42	0.405	0.453	0.461	0.398	0.424	0.461		0.499	0.388
RERF-LC-KJ	0.888	0.766	0.897	0.921	0.667	0.833	0.776	0.879	0.848	0.649	0.403	0.427	0.408	0.372	0.315	1.11	0.884	0.945	0.921	0.979
NCI-H1993		0.493	0.576	0.506	0.451		0.818		0.73	0.727	0.547	0.49	0.484	0.517	0.518		1.13	0.895	0.879	0.785
NCI-H2087	0.255	0.182		0.181	0.182	1.23	0.867	0.42	0.979	0.295	0.459	0.462		0.393	0.181	0.646	0.659		0.531	0.252
NCI-H520	0.647	0.668	0.528	0.481	0.22	0.951	0.791	0.687	0.87	0.572	0.505	0.483	0.449	0.752	0.479	0.383	0.327	0.326	0.298	0.271
NCI-H1648		0.406	0.5	0.376	0.291												0.658	0.765	0.855	0.52
NCI-H23	0.276	0.339	0.287	0.223	0.219	0.875	0.952	0.219	0.393	0.331	0.682	0.701		0.666	0.436	0.292	0.366	0.359	0.324	0.186
LXF-289	0.729	0.652		0.626	0.498	0.895	0.869	0.879	0.772	0.634	0.578	0.5	0.16	0.463	0.365	1.15	0.997		1.01	0.736
HCC-44	1.05	1.07	0.92	0.888	0.607	0.986	0.974	0.871	0.836	0.88	0.211	0.172	0.115	0.119	0.139	1.02	0.893	0.897	1.05	0.93
EMC-BAC-2	0.937	0.791	0.518	0.538	0.402	0.736	0.807	0.945	0.837	0.732	0.518	0.481	0.633	0.545	0.51	0.529	0.492	0.468	0.711	0.636
NCI-H522	0.684	0.773	0.618	0.645	0.589						0.609	0.621	0.558	0.48	0.656	0.588	0.594	0.457	0.545	0.533
NCI-H1792		0.392		0.322	0.102	0.889	0.91	1	0.86	0.755	0.151	0.386	0.137	0.0901	0.038		0.541		0.518	0.287
NCI-H838	0.457	0.505	0.513	0.484	0.455	0.856	0.92	0.396	0.701	0.627	0.539	0.604	0.17	0.445	0.379	0.785	0.802	0.702	0.738	0.671
LCLC-103H	0.67	0.633	0.689	0.628	0.558						0.309	0.333	0.312	0.302	0.295	0.787	0.748	0.719	0.638	0.667
NCI-H2170	0.805	0.913	0.89	0.854	0.819	0.229	0.259	0.231	0.243	0.252	0.41	0.431	0.21	0.445	0.39	0.635	0.662	0.603	0.629	0.534
HOP-62	0.381	0.428	0.296	0.179	0.151	1.14	0.979	0.776	0.27	0.526	0.754	0.647	0.524	0.421	0.377	0.668	0.248	0.174	0.304	0.24

From the supplement of paper PMC10307832
